From paper PMC12526156, “Optimization of the Macrocyclic Tetrapeptide [D-Trp]CJ-15,208 to Prevent Stress-Induced Relapse of Cocaine-Seeking Behavior” (Molecules, 2025)
≈ marks a conversion by molar mass, not a printed value. Where a SMILES comes first, the peptide text is derived from it. [ ]: non-standard residue; d: D form. dPhe(3,4-F2) = N[C@H](Cc1ccc(F)c(F)c1)C(=O)O; dPhe(3,5-F2) = N[C@H](Cc1cc(F)cc(F)c1)C(=O)O; dPhe(3-Me) = Cc1cccc(C[C@@H](N)C(=O)O)c1; dPhe(3-F) = N[C@H](Cc1cccc(F)c1)C(=O)O

Assays:
[1] = target: T1, hKOR (Homo sapiens, UniProt P41145); assay: Competition binding, [3H]U69,593, hKOR-CHO membranes; conditions: for Ki: [3H]U69,593, human KOR, ± S.E.M., three independent experiments, read-out: KOR Ki
[2] = target: T2, human MOR (Homo sapiens, UniProt P35372); assay: biochemical; type: binding; conditions: [3H]DAMGO, human MOR; ± S.E.M., three independent experiments; read-out: MOR Ki
T2 construct: expressed in transfected cells

[3] = target: T1, hKOR; assay: KOR cAMP assay using GloSensor-22F, agonist mode (KOR-CHO-GLO cells); type: cell-based; conditions: read-out: KOR Efficacy (%)
[4] = target: T1, hKOR; assay: KOR cAMP assay using GloSensor-22F, antagonist mode (vs 10 nM U50,488); type: cell-based
Text: A piggy-Bac (PB) transposon/transposase system was utilized to allow for the stable integration of the GloSensor-22F cAMP sensor (Promega, Madison, WI, USA) gene into genomic TTAA sites in Chinese hamster ovary cells already stably expressing the hKOR. The pFastBac hyperPB plasmid vector, which codes for the piggy-Bac transposon/transposase system, was utilized and was a kind gift from Dr. John Lueck. The multicistronic expression cassette developed for our experiments consisted of a CMV promoter driving constitutive expression of GloSensor-22F cAMP sensor, followed by an internal ribosome entry site (IRES) to drive the expression of codon-optimized HygR-P2A-mScarlet (hygromycin resistance gene and mScarlet separated by a 2A self-cleaving peptide element). To clone the expression cassette onto the pFastBac vector, the CMV promoter and GloSensor-22F were PCR amplified from pGloSensor-22F cAMP Plasmid (Promega), the IRES sequence was PCR amplified from pLVX-CMV-Galpha-oA ONE-GO (a gift from Dr. Mikel Garcia-Marcos, Addgene plasmid #189732), the HygR-P2A-mScarlet sequence was a kind gift from Dr. Lueck, and a bGH-poly(A) termination sequence was PCR amplified from pcDNA3.1(+). The pFastBac vector was linearized via overnight digestion with CspCI at 37 °C, which cuts between two inverted terminal repeat (ITR) sequences, and the corresponding backbone and all PCR fragments were gel purified and assembled via Gibson assembly using the Gibson Assembly MasterMix (New England Biolabs, Ipswich, MA, USA). The resulting pFastBac CMV GloSensor-22F IRES HygR-P2A-mScarlet bGH plasmid was transformed into NEB Stable Competent E. coli (New England Biolabs), miniprepped using the E.Z.N.A. Plasmid DNA Mini Kit (Omega Bio-Tek, Norcross, GA, USA), and sequence verified by nanopore whole-plasmid sequencing (Eurofins Genomics, Louisville, KY, USA).
3.0 × 10^6 hKOR-CHO cells were plated on a 6 cm dish and incubated for four h at 37 °C and 5% CO2 in DMEM (Corning Mediatech, Manassas, VA, USA) supplemented with 5% FBS (Corning Mediatech), 1% Penicillin/Streptomycin (Gibco, Waltham, MA, USA). The cells were then transfected with 2.0 μg pFastBac CMV GloSensor-22F IRES HygR-P2A-mScarlet bGH using PEI as a transfection reagent. The following day, transfected cells were reseeded onto a 10 cm dish at a density of 5.0 × 10^5 cells and 600 μg/mL hygromycin B (Gold Bio, St. Louis, MO, USA) was added to the culture media. Cells were cultured under selection antibiotics for seven days, and the selection process was monitored by the increase in abundance of mScarlet positive cells via epifluorescence microscopy.
Following the selection period, KOR-CHO-GLO cells were maintained at 37 °C and 5% CO2 in DMEM supplemented with 5% FBS, 1% Penicillin/Streptomycin and 300 μg/mL hygromycin B to reduce the likelihood of CMV promoter silencing. On the day of the assay, cells were detached with 0.05% trypsin (Gibco) and counted, then centrifuged (1000× g, 5 min) and resuspended in assay buffer (1xPBS, 0.1% glucose, 0.5 mM MgCl2) containing 4 mM D-luciferin substrate (Gold Bio) at approximately 2 million cells/mL. 25 μL of cells (~50,000/well) were seeded onto poly L-lysine-coated white 96-well flat bottom plates (Greiner Bio-One, Kremsmünster, Austria)) and returned to the incubator for 60 min. Following incubation, cells were allowed to equilibrate to room temperature protected from light (10–15 min). Initial luminescence readings (at least 10 cycles) were collected for each well using a FLUOstar Omega v.6.2 plate reader (BMG Labtech, Ortenberg, Germany), after which the plate was removed. Prepared 4x treatments of drug (25 μL) were added to appropriate wells followed by 50 μL of 20 μM forskolin (AmBeed, Buffalo Grove, IL, USA) before the plate was returned to the reader and luminescence measured until final plateau levels were achieved (20–30 min). Assays were performed in duplicate and repeated at least three times.

[5] = Metabolic stability in human liver microsomes; type: in vitro ADME; conditions: 1 mg protein/mL; for half-life at 1 µM / microsomal CLint at 1 µM: human liver microsomes
Protocol: (§1) Evaluation of the metabolic stability of the macrocyclic tetrapeptides by human and mouse liver microsomes was performed by Curia Global (Buffalo, NY, USA). […]

[6] = Metabolic stability in mouse liver microsomes; type: in vitro ADME; conditions: 1 mg protein/mL; for half-life at 1 µM / microsomal CLint at 1 µM: mouse liver microsomes
Protocol: as §1

[7] = Kinetic aqueous solubility; type: physicochemical; conditions: 1% DMSO, pH 7.4
Text: Table A1 Stability of [D-Trp]- and [D-Phe^4]CJ-15,208 and selected analogs in human (HLMs) and mouse liver microsomes (MLMs)^1. and kinetic aqueous solubility. | column: Solubility ^2 / (µM)

[8] = system: C57BL/6J mice; assay: 55 °C warm-water tail-withdrawal assay, antinociception; type: in vivo, mouse; conditions: for antinociception: p.o. dose response, significant only first 10 min at high doses
Protocol: For intracerebroventricular administration, peptides were dissolved in DMSO at a concentration of 20 mM (100 nmol/5 µL), then diluted to test doses in a final vehicle solution of 50%DMSO/50% saline (0.9%). For all other testing (for oral administration), peptides were made fresh each day for testing in a final vehicle solution of 10% DMSO/10% Solutol/80% saline (0.9%).
Intracerebroventricular injections were made directly into the lateral ventricle according to the modified steps detailed previously. The volume of all i.c.v. injections was 5 μL, using a 10 μL Hamilton microliter syringe. The mouse was lightly anesthetized with isoflurane, an incision was made in the scalp, and the injection was made 2 mm lateral and 2 mm caudal to bregma at a depth of 3 mm.
The dose response of analogs 3, 6, 9 and 14 were also assessed following administration of one of up to four additional oral (p.o.) doses (1–30 mg/kg).

[9] = target: CNS KORs (Mus musculus, UniProt P33534); assay: 55 °C WWTW assay, antagonism of centrally administered U50,488 (30 nmol, i.c.v.); conditions: 2.5 h pretreatment, 30 mg/kg, p.o. (9: 10 mg/kg, p.o.)
[10] = target: DOR (Mus musculus, UniProt P32300); assay: 55 °C WWTW assay, antagonism of the DOR-selective agonist SNC80; conditions: 3 or 4 30 mg/kg, p.o., 9 10 mg/kg, 2.5 h before SNC-80 100 nmol, i.c.v.
[11] = target: MOR (Mus musculus, UniProt P42866); assay: 55 °C WWTW assay, antagonism of the MOR-preferring agonist morphine; conditions: 3 or 4 30 mg/kg, p.o., 9 10 mg/kg, 2.5 h before morphine 10 mg/kg, i.p.
[12] = system: C57BL/6J mice; assay: Stress-induced reinstatement of extinguished cocaine conditioned place preference; conditions: 10 mg/kg, p.o.
[13] = 1 µM compound, 37 °C, read-out: HLM t1/2
[14] = 1 µM compound, 37 °C, read-out: MLM t1/2
[15] = 30 mg/kg, p.o., 30 min after administration

| SMILES | Selectivity (MOR Ki/KOR Ki) [1] | Ki [1] [nM] | Ki [2] [nM] | Emax at 10 µM [3] [%] | IC50 [4] [nM] | half-life at 1 µM [5, 13] [min] | microsomal CLint at 1 µM ([5]; read-out: HLM CLint) [µL/min/mg] | half-life at 1 µM [6, 14] [min] | microsomal CLint at 1 µM ([6]; read-out: MLM CLint) [µL/min/mg] | solubility kinetic [7] [µM] | antinociception vs vehicle [8, 15] | antinociception [8] [%] | antagonism of CNS KORs [9] | further results |
| --- | --- | --- | --- | --- | --- | --- | --- | --- | --- | --- | --- | --- | --- | --- |
| O=C1N[C@H](Cc2ccc(F)c(F)c2)C(=O)N[C@@H](Cc2ccccc2)C(=O)N2CCC[C@@H]2C(=O)N[C@H]1Cc1ccccc1 [Analog 8] (cyclo(F[dP]F[dPhe(3,4-F2)])) | 9 | 6.6 ± 0.73 | 57 ± 5.6 | 13 ± 2.7 | 170 ± 28 | 2.2 | 309 | 1.1 | 629 | 9.5 (≈ 5.46 µg/mL) | significant antinociception | – | – | – |
| O=C1N[C@H](Cc2cccc(F)c2)C(=O)N[C@@H](Cc2ccccc2)C(=O)N2CCC[C@@H]2C(=O)N[C@H]1Cc1ccccc1 [Analog 6, [D-Phe(m-F)^4]CJ-15,208] (cyclo(F[dP]F[dPhe(3-F)])) | 5 | 32 ± 5.8 | 160 ± 15 | 11 ± 5.6 | 340 ± 58 | 1.8 | 376 | 2.1 | 331 | 26 (≈ 14.5 µg/mL) | – | < 20 | ineffective | – |
| O=C1N[C@H](Cc2cc(F)cc(F)c2)C(=O)N[C@@H](Cc2ccccc2)C(=O)N2CCC[C@@H]2C(=O)N[C@H]1Cc1ccccc1 [Analog 9, [D-Phe(3,5-F2)^4]CJ-15,208] (cyclo(F[dP]F[dPhe(3,5-F2)])) | 12 | 25 ± 4.3 | 290 ± 27 | 14 ± 2.4 | 320 ± 49 | 2.9 | 237 | 1.2 | 600 | 8.6 (≈ 4.94 µg/mL) | – | < 20 | significant antagonism | effect on antinociceptive effects of SNC80 [10]: no significant effect; effect on antinociceptive effects of morphine [11]: no significant effect; reduction of stress-induced reinstatement of cocaine CPP [12]: not significant |
| Cc1cccc(C[C@H]2NC(=O)[C@H](Cc3ccccc3)NC(=O)[C@H]3CCCN3C(=O)[C@H](Cc3ccccc3)NC2=O)c1 [Analog 14, [D-Phe(m-Me)^4]CJ-15,208] (cyclo(F[dP]F[dPhe(3-Me)])) | 5 | 26 ± 3 | 130 ± 11 | 0.74 ± 5.7 | 320 ± 67 | – | – | – | – | 19 (≈ 10.5 µg/mL) | – | < 20 | ineffective | half-life ([5]; microsomes, 1 µM compound, 37 °C, read-out: HLM t1/2): 4.1 min; microsomal CLint ([5]; microsomes, read-out: HLM CLint): 170 µL/min/mg; half-life ([6]; microsomes, 1 µM compound, 37 °C, read-out: MLM t1/2): 1.5 min; microsomal CLint ([6]; microsomes, read-out: MLM CLint): 467 µL/min/mg |
| CN1CC[C@]23c4c5ccc(O)c4O[C@H]2[C@@H](O)C=C[C@H]3[C@H]1C5 [morphine, reference compound] | – | – | – | – | – | – | – | – | – | – | significant antinociception | – | – | antinociception vs vehicle ([8]; 30 nmol, i.c.v., positive control): significant antinociception |
| COc1ccc(C[C@H]2NC(=O)[C@H](Cc3ccccc3)NC(=O)[C@H]3CCCN3C(=O)[C@H](Cc3ccccc3)NC2=O)cc1 [Analog 18, [D-Tyr(Me)^4]CJ-15,208] (cyclo(F[dP]F[dY](Me))) | – | 150 ± 16 | – | – | – | – | – | – | – | – | significant antinociception | – | – | – |
